The text below walks through data of patent publication US7309691B2, “Combined pharmaceutical preparation containing LHRH-analogous substances and anti estrogens for treating gynaecological disorders” (Achering Aktiengesellschaft, priority 1996, dated 2007).

For data set [1] the following is noted: women; literature; cited from earlier work.
The subject of data set [2] is experimentally produced endometriosis (cystic endometriosis foci). Put plainly: Experimentally produced endometriosis in the rat (transplanted endometrium fragments). The method, then:
Fragments of endometrium were transplanted into different regions of the abdominal cavity of 60 animals.
Four weeks later the development of the endometriosis (cystic endometriosis foci) was examined.
The animals were then treated for 4 weeks with the LHRH antagonists Antide (0.5 mg/animal every 3 days s.c.) and Raloxifen (3 mg/animal per day p.o.) in each case alone, or in a combination of the two compounds. At the end the size of the endometriosis foci before the beginning of the treatment was compared with the values after 4 weeks' treatment.
60 animals received the LHRH antagonist Antide and Raloxifen in parallel for the first 2 weeks and Raloxifen alone for the following 2 weeks. The doses were selected as in 1.1.
60 animals received the LHRH antagonist Antide for 2 weeks. On completion of the LHRH administration Raloxifen was then administered for 2 weeks.
Analogously to Example 1, treatment with LHRH antagonists Ac-D-Nal-D-Cpa-D-Pal-Ser-Tyr-D-Cit-Leu-Lys(Mor)-D-Ala-NH2 and Droloxifen was carried out on 40 animals.

Turning to `C#C[C@]1(O)CC[C@H]2[C@@H]3CCC4=Cc5oncc5C[C@]4(C)[C@H]3CC[C@@]21C` [danazol], the “side effects of treatment” value in data set [1] is “androgenisation phenomena”.
In the case of Antide, in data set [2] (1.1: 4 weeks' treatment, alone), the endogenous oestrogen levels entry is “reduction in endogenous oestrogen levels corresponding to an ovariectomy”. Moreover, in data set [2] (1.1: 4 weeks' treatment, Antide 0.5 mg/animal every 3 days s.c., Raloxifen 3 mg/animal per day p.o., each alone or simultaneous combination), the “regression of the endometriosis foci (size before vs after treatment)” value is on record as “complete regression”. Further, the osteoclast activity result in data set [2] (rat, in vivo) is on record as “increase”.
